Measurements taken from EP0514935B1, “Novel benzopyran derivatives and processes for the preparation thereof” (KOREA RESEARCH INSTITUTE OF CHEMICAL TECHNOLOGY, priority 1991, dated 1992).
pEC50: −log10 of the molar value. Where two headings read alike, the source gives them in different places. Values belong to the molecule of their own block, whether it stands above or below them.

Assays:
[1] = test system: spontaneously hypertensive rats; experiment: Blood pressure-lowering activity, tail-cuff method; type: in vivo; conditions: maximum lowering effect on systolic blood pressure
Method: The activity of the formula(I) compounds of the present invention was tested by employing the tail-cuff method described in references [see, e.g., I. M. Claxton, M. G. Palfreyman, R. H. Poyster and R. L. Whiting, European Journal of Pharmacology 37, 179(1976)] . After administration of the test compound of formula(I) to sets of spontaneously hypertensive rats, maximum blood pressure-lowering activity was determined by measuring the lowering effect on systolic blood pressure.

[2] = Toxicity test, oral administration, deaths over 48 hours; conditions: rat, in vivo, rats, orally administered; for mortality at 48 h: deaths over 48 hours, read-out: Lethal Rate(%); for LD50 at 48 h: amount of test compound which causes a 50% lethal rate, read-out: LD₅₀
Method: Six pairs(each pair consisting of a male and a female) of the rats were used in the test. The number of the rats which died over a period of 48 hours was reported.

[3] = test system: Guinea pig trachea muscle; experiment: Relaxation activity on respiratory smooth muscle contracted with histamine; type: cell-based; conditions: Cavia porcellus, concentration relaxing 50% of the contraction, read-out: Trachea Relaxation Activity, EC₅₀
Method: Further, the relaxation activity on respiratory smooth muscle was determined as follows: Guinea pig trachea muscle was made to be contracted with histamine; and then the test compound of the present invention was administered thereto; and the concentration of the test compound which was required in relaxing 50% level of the contraction was determined and designated as EC₅₀.

SMILES: COC(OC)C1(C)C=C(N2CCCC2=O)c2cc(C#N)ccc2O1 (racemic) [Example 1, 2-dimethoxymethyl-2-methyl-4-(2' -oxo-1' -pyrrolidinyl)-6-cyano-2H-1-benzopyran]
Blood Pressure-Lowering Activity ([1]; Dose 0.3 mg/kg): 24% | Blood Pressure-Lowering Activity ([1]; Dose 1.0 mg/kg): 43% | mortality at 48 h ([2]; Dose 10 mg/kg): 0% | mortality at 48 h ([2]; Dose 20 mg/kg): 8% | mortality at 48 h ([2]; Dose 50 mg/kg): 25% | LD50 at 48 h [2]: > 50 mg/kg | pEC50 [3]: 3.82

pEC50 [3]: 4.96
SMILES: COC(OC)C1(C)C=C(N2CCCC2=O)c2cc(S(=O)(=O)c3ccccc3)ccc2O1 (racemic) [Example 3, 2-dimethoxymethyl-2-methyl-4-(2' -oxo-1' -pyrrolidinyl)-6-phenylsulfonyl-2H-1-benzopyran]
Blood Pressure-Lowering Activity ([1]; Dose 0.1 mg/kg): 6.9%

pEC50 [3]: 4.30
SMILES: CC1(C2OCCO2)C=C(N2CCCC2=O)c2cc(C#N)ccc2O1 (racemic) [Example 7, 2-(2'' -(1'' ,3'' -dioxolane))-2-methyl-4-(2' -oxo-1' -pyrrolidinyl)-6-cyano-2H-1-benzopyran]
Blood Pressure-Lowering Activity ([1]; Dose 1.0 mg/kg): 41%

pEC50 [3]: 4.77
SMILES: CC1(C2OCCO2)C=C(N2CCCC2=O)c2cc(OC(F)(F)F)ccc2O1 (racemic) [Example 9, 2-(2'' -(1'' ,3'' -dioxolane))-2-methyl-4-(2' -oxo-1' -pyrrolidinyl)-6-trifluoromethoxy-2H-1-benzopyran]
Blood Pressure-Lowering Activity ([1]; Dose 0.1 mg/kg): 20.6%

SMILES: CC1(C2OCCCO2)C=C(N2CCCC2=O)c2cc([N+](=O)[O-])ccc2O1 (racemic) [Example 11, 2-(2'' -(1'' ,3'' -dioxane))-2-methyl-4-(2' -oxo-1' -pyrrolidinyl)-6-nitro-2H-1-benzopyran]
Blood Pressure-Lowering Activity ([1]; Dose 0.1 mg/kg): 48% | mortality at 48 h ([2]; Dose 10 mg/kg): 0% | mortality at 48 h ([2]; Dose 20 mg/kg): 35% | mortality at 48 h ([2]; Dose 50 mg/kg): 35% | LD50 at 48 h [2]: > 50 mg/kg | pEC50 [3]: 4.30

SMILES: COC(OC)C1(C)C=C(N2CCCC2=O)c2cc(C#N)ccc2O1 (single isomer, unassigned) [16(-), 2-dimethoxymethyl-2-methyl-4-(2' -oxo-1' -pyrrolidinyl)-6-cyano-2H-1-benzopyran]
Blood Pressure-Lowering Activity ([1]; Dose 0.3 mg/kg): 28% | Blood Pressure-Lowering Activity ([1]; Dose 1.0 mg/kg): 55% | pEC50 [3]: 3.85

pEC50 [3]: 5.57
SMILES: CC1(C)Oc2ccc(C#N)cc2C(N2CCCC2=O)C1O (stereo not drawn) [Cromakalim(-), Cromakalim, reference compound]
Blood Pressure-Lowering Activity ([1]; Dose 0.3 mg/kg): 39%
